Test results taken from PubChem BioAssay AID220 (DTP/NCI, 2004).
Values joined by “and” are separate entries in the source; they are usually repeats but may differ in a detail not shown here. Identical values can stand only once. Inconclusive results are not listed.

System: CD8F1 mice, subcutaneous mammary adenocarcinoma, T/C%
Test: NCI In Vivo Anticancer Drug Screen. Data for tumor model Mammary Adenocarcinoma CD8F1 (subcutaneous) in CD8F1
Details: endpoint: median tumor weight (est.), schedule: Q07DX005 (ip), higher = larger tumour
How it was run: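 Compound-treated versus vehicle-treated mice with transplantable tumors; survival or tumor size compared as T/C.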

| SMILES | T/C (dose: 12.5 mg/kg/injection, vehicle: saline with Tween-80) | T/C (dose: 25.0 mg/kg/injection, vehicle: saline with Tween-80) | T/C (dose: 50.0 mg/kg/injection, vehicle: saline with Tween-80) | T/C (dose: 100.0 mg/kg/injection, vehicle: saline with Tween-80) | T/C (dose: 200.0 mg/kg/injection, vehicle: saline with Tween-80) | T/C (dose: 400.0 mg/kg/injection, vehicle: saline with Tween-80) | T/C (dose: 6.25 mg/kg/injection, vehicle: Klucel (hydroxypropylcellulose) (HPC)) | T/C (dose: 50.0 mg/kg/injection, vehicle: Klucel (hydroxypropylcellulose) (HPC)) | T/C (dose: 100.0 mg/kg/injection, vehicle: Klucel (hydroxypropylcellulose) (HPC)) |
| --- | --- | --- | --- | --- | --- | --- | --- | --- | --- |
| CCOC(=O)C(C)(C)Oc1ccc(Cl)cc1 | 61 % of control | 113 % of control | 84 % of control | 72 % of control | 77 % of control | 64 % of control |  |  |  |
| CC1=CC(=Nc2ccc(N(CCCl)CCCl)cc2)C=C(C)C1=O |  |  |  |  |  |  | 61 % of control and 69 % of control | 32 % of control and 44 % of control | 45 % of control |
